Data: PMC10266451, “SKF96365 modulates activity of CatSper channels in human sperm” (Molecular Human Reproduction, 2023)

What was measured:
Assay type in all cases: cell-based
[1] = biological target: T1, CatSper (cation channel of sperm) (Homo sapiens, UniProt Q7RTX7+Q86XQ3+Q8NEC5+Q96P56); test: whole-cell patch clamp of human sperm, Cs+ CatSper currents; details: activation within 30 s, followed by secondary block; divalent-free Cs+ solutions, ramps -80 to 80 mV
T1 construct: gene CATSPER1; native channel complex in capacitated donor spermatozoa; with Cation channel sperm-associated auxiliary subunit beta; Cation channel sperm-associated auxiliary subunit gamma; Cation channel sperm-associated auxiliary subunit delta; Cation channel sperm-associated auxiliary subunit epsilon; Cation channel sperm-associated auxiliary subunit zeta

[2] = biological target: T1, CatSper (cation channel of sperm); test: fluo4 Ca2+ population fluorimetry in human sperm; details: activation, capacitated intact sperm, sEBSS with BSA, whole-cell [Ca2+]i read-out attributed to CatSper
[3] = biological target: T1, CatSper (cation channel of sperm); test: whole-cell patch clamp of human sperm, Cs+ CatSper currents; details: activation, stable; divalent-free Cs+ solutions, ramps -80 to 80 mV; direct binding to CatSper not tested

Row | % current enhancement at 30 μM [1] [%] | EC50 ([2]; mechanism distinct from progesterone) [µM] | SMILES | % current increase at 3 μM [3] [%] | EC50 ([2]; direct binding to CatSper not tested) [µM]
1 | 100 | 9.5 | COc1ccc(CCCOC(Cn2ccnc2)c2ccc(OC)cc2)cc1 (stereo not shown) [SKF96365] | – | –
2 | – | – | CC(=O)[C@H]1CC[C@H]2[C@@H]3CCC4=CC(=O)CC[C@]4(C)[C@H]3CC[C@]12C [progesterone] | 200 | 0.032
